Measured values taken from patent publication US8354403B2, “Pyrrolidine derived beta 3 adrenergic receptor agonists” (Merck Sharp & Dohme Corp., priority 2009, dated 2013).
pEC50: −log10 of the molar value. Where two headings read alike, the source gives them in different places. Each block holds one compound with its values, some of them ahead of it.

Target: T1, human β3 adrenergic receptor (Homo sapiens, UniProt P13945)
T1 construct: expressed in transfected cells; host or cells: Chinese hamster ovary (CHO) cells, stably transfected
Experiment: Beta-3 agonist in vitro functional assay: cAMP production (LANCE TR-FRET) in CHO cells stably transfected with the cloned β3 receptor
Type: cell-based
How it was run: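 CHO cells stably expressing the cloned receptor, in HEPES-buffered HBSS with BSA and 0.6 mM IBMX, 6,000 cells/well, exposed to compound for 30 min at RT. cAMP read by LANCE TR-FRET against a cAMP standard curve. Isoproterenol defines maximal stimulation.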

[1] = Table 5, cAMP, CHO cells, read-out: Human β3 agonist functional activity
[2] = Table 12, human β3 functional activity given as ranges, read-out: Human β3 agonist functional activity
[3] = Table 4, cAMP, CHO cells, read-out: Human β3 agonist functional activity
[4] = Table 9, Beta-3 agonist in vitro functional assay, read-out: Human β3 agonist functional activity
[5] = Table 10, Beta-3 agonist in vitro functional assay, read-out: Human β3 agonist functional activity
[6] = Table 8, Beta-3 agonist in vitro functional assay, read-out: Human β3 agonist functional activity
[7] = Table 11, cAMP, CHO cells, read-out: Human β3 agonist functional activity

T1 sequence (P13945 whole entry): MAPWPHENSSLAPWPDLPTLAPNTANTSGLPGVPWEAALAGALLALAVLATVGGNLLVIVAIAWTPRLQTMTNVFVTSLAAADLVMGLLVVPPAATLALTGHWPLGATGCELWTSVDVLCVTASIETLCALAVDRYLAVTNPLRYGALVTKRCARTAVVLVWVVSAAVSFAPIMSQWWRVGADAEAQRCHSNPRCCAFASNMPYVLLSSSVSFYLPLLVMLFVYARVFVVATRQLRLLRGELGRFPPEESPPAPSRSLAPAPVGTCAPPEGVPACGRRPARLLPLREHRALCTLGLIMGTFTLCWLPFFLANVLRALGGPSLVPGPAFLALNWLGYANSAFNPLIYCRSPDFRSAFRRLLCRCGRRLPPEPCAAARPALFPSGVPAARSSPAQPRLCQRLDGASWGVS

Compound: O=C(c1ccc(CC2CCC(C(O)c3ccccc3)N2)cc1)N1CCN(C(c2ccccn2)C2CC2)CC1 (single isomer, unassigned) [Example 589]
pEC50 [2]: 7.00 to 8.00

Compound: O=C(c1ccc(C[C@@H]2CC[C@H]([C@H](O)c3ccccc3)N2)cc1)N1CC2CC(n3nccn3)CC2C1 (some centres unmarked) [Example 20]
pEC50 [3]: 7.00 to 8.00

Compound: O=C(c1ccc(C[C@@H]2CC[C@H]([C@H](O)c3ccccc3)N2)cc1)N1CCN(c2ccccn2)CC1 [Example 355]
pEC50 [4]: 6.00 to 7.00

Compound: O=C(c1ccc(C[C@@H]2CC[C@H]([C@H](O)c3ccccc3)N2)cc1)N1CCC(Cc2ccc(F)cc2)CC1 [Example 145]
pEC50 [1]: 7.00 to 8.00

Compound: O=C(c1ccc(CC2CCC(C(O)c3ccccc3)N2)cc1)N1CCC2(CCCC2=NO)CC1 (centres unmarked) [Example 317]
pEC50 [6]: 7.00 to 8.00

Compound: CC(c1ncccn1)N1CCN(C(=O)c2ccc(CC3CCC(C(O)c4ccccc4)N3)cc2)CC1 (single isomer, unassigned) [Example 595]
pEC50 [2]: 7.00 to 8.00

Compound: CC(c1ncc2ccccc2n1)N1CCN(C(=O)c2ccc(C[C@@H]3CC[C@H]([C@H](O)c4ccccc4)N3)cc2)CC1 (mixture of isomers) [Example 572]
pEC50 [2]: 8.00 to 9.00

Compound: O=C(c1ccc(C[C@@H]2CC[C@H]([C@H](O)c3ccccc3)N2)cc1)N1CCC(S(=O)(=O)O)CC1 [Example 141]
pEC50 [1]: 7.00 to 8.00

Compound: CC(c1nccs1)N1CCN(C(=O)c2ccc(CC3CCC(C(O)c4ccccc4)N3)cc2)CC1 (single isomer, unassigned) [Example 581]
pEC50 [2]: 8.00 to 9.00

Compound: O=C(O)C1C2CN(C(=O)c3ccc(CC4CCC(C(O)c5ccccc5)N4)cc3)CC21 (centres unmarked) [Example 231]
pEC50 (Table 7, cAMP, CHO cells, ranges as given for Tables 6 and 7, read-out: Human β3 agonist functional activity): 6.00 to 7.00

Compound: CC(c1ccccn1)N1C2CCC1CN(C(=O)c1ccc(CC3CCC(C(O)c4ccccc4)N3)cc1)C2 (centres unmarked) [Example 539]
pEC50 [7]: 7.00 to 8.00

Compound: O=C(c1ccc(CC2CCC(C(O)c3ccccc3)N2)cc1)N1CCN(C2CCN(c3ccccc3)C2=O)CC1 (single isomer, unassigned) [Example 605]
pEC50 [2]: 8.00 to 9.00

Compound: Cc1nc2c(o1)CN(C(=O)C(C)N1CCN(C(=O)c3ccc(C[C@@H]4CC[C@H]([C@H](O)c5ccccc5)N4)cc3)CC1)CC2 (some centres unmarked) [Example 504]
pEC50 [5]: 8.00 to 9.00

Compound: COc1ccccc1CN1CCN(C(=O)c2ccc(C[C@@H]3CC[C@H]([C@H](O)c4ccccc4)N3)cc2)CC1 [Example 409]
pEC50 [4]: 7.00 to 8.00

Compound: O=C(c1ccc(C[C@@H]2CC[C@H]([C@H](O)c3ccccc3)N2)cc1)N1C[C@@H]2[C@H](C1)[C@H]2c1nnco1 [Example 170]
pEC50 (given as a range, cAMP, CHO cells, read-out: human β3 functional activity): 8.00 to 9.00

Compound: CN1CCC2(CCN(C(=O)c3ccc(C[C@@H]4CC[C@H]([C@H](O)c5ccccc5)N4)cc3)CC2)C1=O [Example 251]
pEC50 [6]: 6.00 to 7.00

Compound: O=C(c1ccc(C[C@@H]2CC[C@H]([C@H](O)c3ccccc3)N2)cc1)N1CCN(Cc2nc3ccccc3s2)CC1 [Example 404]
pEC50 [4]: 7.00 to 8.00

Compound: C[C@@H](c1ccccn1)N1CC2CC1CN2C(=O)c1ccc(C[C@@H]2CC[C@H]([C@H](O)c3ccccc3)N2)cc1 (some centres unmarked) [Example 538]
pEC50 [7]: 6.00 to 7.00

Compound: O=C(c1ccc(C[C@@H]2CC[C@H]([C@H](O)c3ccccc3)N2)cc1)N1CC2CCC1CN2Cc1ccccn1 (some centres unmarked) [Example 536]
pEC50 [7]: 6.00 to 7.00

Compound: CC1COC(=O)C12CCN(C(=O)c1ccc(C[C@@H]3CC[C@H]([C@H](O)c4ccccc4)N3)cc1)CC2 (some centres unmarked) [Example 296]
pEC50 [6]: 8.00 to 9.00

Compound: O=C1NC2(CCN(C(=O)c3ccc(C[C@@H]4CC[C@H]([C@H](O)c5ccccc5)N4)cc3)CC2)Oc2ccccc21 [Example 332]
pEC50 [6]: 7.00 to 8.00

Compound: COc1cccc2c1C1(CCN(C(=O)c3ccc(C[C@@H]4CC[C@H]([C@H](O)c5cccnc5)N4)cc3)CC1)OC(=O)N2 [Example 331]
pEC50 [6]: 7.00 to 8.00

Compound: Cc1noc(C(C)N2CCN(C(=O)c3ccc(C[C@@H]4CC[C@H]([C@H](O)c5ccccc5)N4)cc3)CC2)n1 (some centres unmarked) [Example 422]
pEC50 [4]: 7.00 to 8.00

Compound: O=C(c1ccc(C[C@@H]2CC[C@H]([C@H](O)c3ccccc3)N2)cc1)N1CCCC1c1nccs1 (some centres unmarked) [Example 15]
pEC50 [3]: 6.00 to 7.00

Compound: CC(C(=O)N1CCCCC12CC2)N1CCN(C(=O)c2ccc(C[C@@H]3CC[C@H]([C@H](O)c4ccccc4)N3)cc2)CC1 (some centres unmarked) [Example 493]
pEC50 [5]: 7.00 to 8.00

Compound: O=C(c1ccc(C[C@@H]2CC[C@H]([C@H](O)c3ccccc3)N2)cc1)N1CCC(O)(Cc2ccccc2)CC1 [Example 245]
pEC50 [6]: 7.00 to 8.00

Compound: O=C(c1ccc(C[C@@H]2CC[C@H]([C@H](O)c3ccccc3)N2)cc1)N1CCC(Cn2ccncc2=O)CC1 [Example 151]
pEC50 [1]: 7.00 to 8.00

Compound: CC(c1cocn1)N1CCN(C(=O)c2ccc(CC3CCC(C(O)c4ccccc4)N3)cc2)CC1 (single isomer, unassigned) [Example 586]
pEC50 [2]: 7.00 to 8.00

Compound: C[C@H](c1ccccn1)N1C2CCC1C1CCC2N1C(=O)c1ccc(C[C@@H]2CC[C@H]([C@H](O)c3ccccc3)N2)cc1 [Example 525]
pEC50 (human β3 functional activity): 7.00 to 8.00

Compound: CC(C(=O)N1CCC(CO)CC1)N1CCN(C(=O)c2ccc(C[C@@H]3CC[C@H]([C@H](O)c4ccccc4)N3)cc2)CC1 (some centres unmarked) [Example 490]
pEC50 [5]: 7.00 to 8.00

Compound: O=C1CC2(CCN(C(=O)c3ccc(C[C@@H]4CC[C@H]([C@H](O)c5ccccc5)N4)cc3)CC2)Oc2ccc(-c3nnn[nH]3)cc21 [Example 325]
pEC50 [6]: 7.00 to 8.00

Compound: COc1ccc2c(c1)C(=O)CC1(CCCN(C(=O)c3ccc(C[C@@H]4CC[C@H]([C@H](O)c5ccccc5)N4)cc3)C1)O2 (some centres unmarked) [Example 43]
pEC50 [3]: 7.00 to 8.00

Compound: O=C(c1ccc(C[C@@H]2CC[C@H]([C@H](O)c3ccccc3)N2)cc1)N1CCC2(CCNC2)CC1 [Example 306]
pEC50 [6]: 8.00 to 9.00

Compound: CC(C(=O)N1CCSC1)N1CCN(C(=O)c2ccc(C[C@@H]3CC[C@H]([C@H](O)c4ccccc4)N3)cc2)CC1 (some centres unmarked) [Example 481]
pEC50 [5]: 6.00 to 7.00

Compound: O=C(c1ccc(C[C@@H]2CC[C@H]([C@H](O)c3cccnc3)N2)cc1)N1CCC2c3ccccc3OC2C1 (some centres unmarked) [Example 57]
pEC50 [3]: 8.00 to 9.00

Compound: CCC1CC2(CCN(C(=O)c3ccc(CC4CCC(C(O)c5ccccc5)N4)cc3)CC2)C(=O)O1 (single isomer, unassigned) [Example 564]
pEC50 [2]: 8.00 to 9.00

Compound: C[C@@H]1CN(Cc2ccccn2)CCN1C(=O)c1ccc(C[C@@H]2CC[C@H]([C@H](O)c3ccccc3)N2)cc1 [Example 529]
pEC50 [7]: 6.00 to 7.00

Now from value to compound:

pEC50 [1]: 8.00 to 9.00
Compound: Cc1nnnn1C1CCN(C(=O)c2ccc(C[C@@H]3CC[C@H]([C@H](O)c4ccccc4)N3)cc2)CC1 [Example 101]

pEC50 [1]: 6.00 to 7.00
Compound: O=C(O)C1CCN(C(=O)c2ccc(C[C@@H]3CC[C@H]([C@H](O)c4ccccc4)N3)cc2)CC1 [Example 117]

pEC50 [5]: 6.00 to 7.00
Compound: CC(C)CN(C)C(=O)C(C)N1CCN(C(=O)c2ccc(C[C@@H]3CC[C@H]([C@H](O)c4ccccc4)N3)cc2)CC1 (some centres unmarked) [Example 518]

pEC50 [5]: 7.00 to 8.00
Compound: CC(C(=O)NC1CCCC1)N1CCN(C(=O)c2ccc(C[C@@H]3CC[C@H]([C@H](O)c4ccccc4)N3)cc2)CC1 (some centres unmarked) [Example 456]

pEC50 [5]: 7.00 to 8.00
Compound: CC(C(=O)NCC1CC1(C)C)N1CCN(C(=O)c2ccc(C[C@@H]3CC[C@H]([C@H](O)c4ccccc4)N3)cc2)CC1 (some centres unmarked) [Example 450]

pEC50 [2]: 8.00 to 9.00
Compound: CCC(c1ccccn1)N1CCN(C(=O)c2ccc(CC3CCC(C(O)c4ccccc4)N3)cc2)CC1 (single isomer, unassigned) [Example 588]

pEC50 [4]: 6.00 to 7.00
Compound: O=C(c1ccc(C[C@@H]2CC[C@H]([C@H](O)c3ccccc3)N2)cc1)N1CCN(c2ncc3ccccc3n2)CC1 [Example 375]

pEC50 [4]: 6.00 to 7.00
Compound: O=C(O)c1cccnc1N1CCN(C(=O)c2ccc(C[C@@H]3CC[C@H]([C@H](O)c4ccccc4)N3)cc2)CC1 [Example 365]

pEC50 [6]: 8.00 to 9.00
Compound: O=C1CC2(CCN(C(=O)c3ccc(C[C@@H]4CC[C@H]([C@H](O)c5ccccc5)N4)cc3)CC2)S(=O)(=O)c2sccc21 [Example 340]

pEC50 [1]: 7.00 to 8.00
Compound: CS(=O)(=O)C1CCN(C(=O)c2ccc(C[C@@H]3CC[C@H]([C@H](O)c4ccccc4)N3)cc2)CC1 [Example 122]

pEC50 [5]: 6.00 to 7.00
Compound: CC(C(=O)N(C)C(C)(C)C)N1CCN(C(=O)c2ccc(C[C@@H]3CC[C@H]([C@H](O)c4ccccc4)N3)cc2)CC1 (some centres unmarked) [Example 517]

pEC50 [5]: > 9.00
Compound: CC(C(=O)NC1CCN(C)C1=O)N1CCN(C(=O)c2ccc(C[C@@H]3CC[C@H]([C@H](O)c4ccccc4)N3)cc2)CC1 (some centres unmarked) [Example 459]

pEC50 [1]: 6.00 to 7.00
Compound: COc1cc(OC)nc(C2CCN(C(=O)c3ccc(C[C@@H]4CC[C@H]([C@H](O)c5ccccc5)N4)cc3)CC2)n1 [Example 115]

pEC50 [5]: 7.00 to 8.00
Compound: CC(C(=O)N1CCCC2(CCCO2)C1)N1CCN(C(=O)c2ccc(C[C@@H]3CC[C@H]([C@H](O)c4ccccc4)N3)cc2)CC1 (some centres unmarked) [Example 497]

pEC50 [5]: 7.00 to 8.00
Compound: CC(C(=O)N1CCCCC1C)N1CCN(C(=O)c2ccc(C[C@@H]3CC[C@H]([C@H](O)c4ccccc4)N3)cc2)CC1 (some centres unmarked) [Example 485]

pEC50 [4]: 6.00 to 7.00
Compound: O=C(O)[C@@H]1CCCN1C(=O)CN1CCN(C(=O)c2ccc(C[C@@H]3CC[C@H]([C@H](O)c4ccccc4)N3)cc2)CC1 [Example 391]

pEC50 [3]: 6.00 to 7.00
Compound: CC1(O)CCN(C(=O)c2ccc(C[C@@H]3CC[C@H]([C@H](O)c4ccccc4)N3)cc2)C1 (some centres unmarked) [Example 12]

pEC50 [1]: 6.00 to 7.00
Compound: Cc1cncn1C1CCN(C(=O)c2ccc(C[C@@H]3CC[C@H]([C@H](O)c4cccnc4)N3)cc2)CC1 [Example 87]

pEC50 [4]: 7.00 to 8.00
Compound: O=C(c1ccc(C[C@@H]2CC[C@H]([C@H](O)c3ccccc3)N2)cc1)N1CCN(Cc2ncccc2Br)CC1 [Example 416]

pEC50 [2]: 7.00 to 8.00
Compound: CC(c1cccnn1)N1CCN(C(=O)c2ccc(CC3CCC(C(O)c4ccccc4)N3)cc2)CC1 (single isomer, unassigned) [Example 591]

pEC50 [3]: 8.00 to 9.00
Compound: O=C(c1ccc(C[C@@H]2CC[C@H]([C@H](O)c3ccccc3)N2)cc1)N1CC2CCC(C1)C2n1cnnn1 (some centres unmarked) [Example 63]

pEC50 [1]: 8.00 to 9.00
Compound: CCS(=O)(=O)C1CCN(C(=O)c2ccc(C[C@@H]3CC[C@H]([C@H](O)c4ccccc4)N3)cc2)CC1 [Example 124]
